Reference: US11617733B2, “Bicyclic compound and use thereof for medical purposes” (ONO PHARMACEUTICAL CO., LTD., priority 2009, dated 2023)

Tests used:
[1] = system: male rabbit (NewZealandWhite); experiment: Aqueous humor protein concentration in rabbit after ocular instillation; format: in vivo; details: ocular instillation 30 μL, 0.1% (w/v), 0-8 hours
Procedure: (2-2) Assessment of Ocular Stimulating Property and Aqueous Humor Protein Concentration
To one eye of a male rabbit (NewZealandWhite, 2.0 to 3.0 kg) was ocular-instilled 30 μL of the compound of Example 16 (35), the compound of Example 16 (3) and the compound of Example 16 (25) which had been adjusted to 0.1% (w/v) with a base (containing citrate buffer pH 6.5, 0.5% polysorbate 80, 1% propylene glycol, 0.01% benzalkonium chloride), respectively. Thereafter, an aqueous humor in anterior chamber after 0, 1, 2, 4, 6 and 8 hours from ocular instillation was collected, and a protein concentration in the humor was measured. As a comparative compound, the aforementioned methyl ester of the compound of Example 12 described in Patent Literature 2 (i.e. compound of Example 10 described in Patent Literature 2) (hereinafter, abbreviated as Comparative Compound B in some cases) was used.
Regarding any test compound, a dose until a dissolution limit (150 to 1000 μg/mL) was administered and action of each active body was assessed.

male dog (TOYO Beagle) = experiment: Intraocular pressure lowering action in dog after ocular instillation; format: in vivo
Procedure: (2-1) Intraocular Pressure Lowering Action
To one eye of a male dog (TOYO Beagle) which had been sufficiently acclimated in advance was ocular-instilled 30 μL of each test compound (compound of Example 16 (35), compound of Example 16 (3) and compound of Example 16(25)) which had been adjusted with a base (containing citrate buffer pH 6.5, 0.5% polysorbate 80, 1% propylene glycol, 0.01% benzalkonium chloride) to 0.01% (w/v) or 0.001% (w/v), respectively. The other eye was not treated. As a positive control compound, latanoprost which is the known compound was used.
Thereafter, an ocular surface anesthetic (Benoxil eye drops 0.4%, Santen Pharmaceutical Co., Ltd.) was subjected to ocular instillation to locally anesthetize eyes, and an intraocular pressure of each test compound before ocular instillation and after 2, 4, 6, 8, and 24 hours from ocular instillation was measured. An intraocular pressure was measured using a pneumatic applanation flat tonometer (Model 30 Classic, REICHERT). An intraocular pressure lowering rate (%) was calculated by the following equation. Intraocular pressure lowering rate (%)=(intraocular pressure value before ocular instillation−intraocular pressure value at each point)/(intraocular pressure value before ocular instillation)×100 [Mathematic 1]

Structure (SMILES) | Action on protein concentration in aqueous humor (in words) [1] | Intraocular pressure lowering action compared with positive control latanoprost (in words) (male dog (TOYO Beagle))
CC(C)OC(=O)CCC[C@H]1CC[C@@H]2[C@@H](/C=C/[C@@H](O)COc3cc(F)ccc3F)[C@H](O)C[C@@H]2OC1 [Example 16 (25), 2-Propanyl 4-{(3S, 5aR, 6R, 7R, 8aS)-6-[(1E, 3R)-4-(2,5-difluorophenoxy)-3-hydroxy-1-buten-1-yl]-7-hydroxyoctahydro-2H-cyclopenta[b]oxepin-3-yl}butanoate] | no action of raising a protein concentration in an aqueous humor | stronger intraocular pressure lowering action as compared with latanoprost
CCOC(=O)CCC[C@H]1CC[C@@H]2[C@@H](/C=C/[C@@H](O)COc3ccccc3)[C@H](O)C[C@@H]2OC1 [Example 16 (35), Ethyl 4-{(3S, 5aR, 6R, 7R, 8aS)-7-hydroxy-6-[(1E, 3R)-3-hydroxy-4-phenoxy-1-buten-1-yl]octahydro-2H-cyclopenta[b]oxepin-3-yl}butanoate] | no action of raising a protein concentration in an aqueous humor | stronger intraocular pressure lowering action as compared with latanoprost
